For one data set, the target named is FGFR1 (Homo sapiens (Human), UniProt P11362). The data set can be described thus: TR-FRET kinase inhibition assay, FGFR1. The following applies: ATP Km concentration (30 μM). The format is biochemical. In short, it runs like this: (§1)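 Kinase-domain fragments in 50 mM HEPES pH 7.5 with 10 mM MgCl2, ATP at Km plus peptide substrate; 60 min reaction at room temperature, then EDTA/Eu-anti-phosphotyrosine (PT66) detection for 60 min (30 min for V564F). 11-point 3-fold dilutions from 1000 nM; IC50 from four-parameter fit of 665/620 nm ratio inhibition.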
Chain of FGFR1 (P11362 478-767): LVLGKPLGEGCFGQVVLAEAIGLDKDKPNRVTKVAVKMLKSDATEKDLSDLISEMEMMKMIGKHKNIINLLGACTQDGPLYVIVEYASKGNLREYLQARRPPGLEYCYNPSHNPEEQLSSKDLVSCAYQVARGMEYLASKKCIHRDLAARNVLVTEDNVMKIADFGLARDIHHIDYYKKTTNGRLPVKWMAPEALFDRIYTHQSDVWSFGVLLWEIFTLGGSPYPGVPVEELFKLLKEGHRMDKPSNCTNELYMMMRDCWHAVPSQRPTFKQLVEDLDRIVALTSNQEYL

In a further data set the target is FGFR2 (Homo sapiens (Human), UniProt P21802). Kind of data set: TR-FRET kinase inhibition assay, FGFR2. The settings on record: ATP Km concentration (30 μM). The format is biochemical. In short, it runs like this:
as §1

Data set [1] in a line: Pharmacokinetic experiment in SD rats after oral administration. The settings on record: 5 mg/kg, plasma; for AUC(0-t) / AUC(0-inf) / half-life / MRT / Cmax: male, Sprague-Dawley (SD), rat, po; for AUC(0-t): read-out: Area under the curve AUC0-t; for AUC(0-inf): read-out: Area under the curve AUC0-∞; for half-life: read-out: Half-life t1/2 (converted); for MRT: read-out: Mean residence time MRT; for Cmax: read-out: Plasma concentration Cmax; for Time to peak tmax: p.o. The class given is in vivo. How it is done: To study the pharmacokinetic behavior of the compounds of the present invention in the rat body (plasma) after oral administration at a dose of 5 mg/kg using SD rats as test animals.
3 SD rats/group, male, from Shanghai Jiesijie Experimental Animal Co., Ltd., animal production license number (SCXK (Shanghai) 2013-0006 N0.311620400001794).
PO, 10% solutol HS15-0.5% CMC-Na was dissolved by ultrasound and prepared into a clear solution or homogeneous suspension.
3 SD rats/group, male; p.o. respectively at a dose of 5 mg/kg and an administration volume of 10 mL/kg after the […] were fasted overnight.
After oral administration to rats, at 0.25, 0.5, 1, 2, 4, 6, 8 and 24 hours, 0.2 mL of blood was collected from the jugular vein, placed in an EDTA-K2 test tube, centrifuged at 6000 rpm for 6 min at 4° C. to separate the plasma, which was stored at −80° C.
1) 100 μL of acetonitrile was added to 20 μL of plasma sample for pelleting, and it was mixed and centrifuged at 3500×g for 5-20 min.
2) The treated supernatant solution was taken and subjected to LC/MS/MS to analyze the concentrations of the test compounds. LC/MS/MS analysis instrument: AB Sciex API 4000 Qtrap.
• Liquid phase conditions: Shimadzu LC-20AD pump • Chromatographic column: Waters Xbridge C18 5 μm, 4.6×50 mm mobile phase: liquid A was 0.1% aqueous formic acid solution, and liquid B was methanol • Flow rate: 1.0 mL/min • Elution time: 0-4.0 min, the eluent was as follows: […]

Data set [2] deals with BaF3 FGFR2-BICC1 V564F cells. The data set can be described thus: CellTiter-Glo cell proliferation inhibition, BaF3 FGFR2-BICC1 V564F. The format is cell-based. The following applies: Mus musculus, 72 h, read-out: BaF3 FGFR2-BICC1 V564F inhibitory activity IC50. The gist of the method:
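Cells plated, compound added next day as 9-point 3-fold series from 1000 nM to 0.15 nM, incubated 72 h. Viability by CellTiter-Glo luminescence; IC50 from four-parameter variable-slope fit of percent inhibition.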

In another data set the target is FGFR2 V564F (Homo sapiens (Human), UniProt P21802, V564F). The data set can be described thus: TR-FRET kinase inhibition assay, FGFR2 V564F. The format is biochemical. The following applies: ATP Km concentration (20 μM). The gist of the method:
as §1

Another data set has as its system NCI-H716 cells. The data set can be described thus: CellTiter-Glo cell proliferation inhibition, NCI-H716. The class given is cell-based. The following applies: Homo sapiens, 72 h, read-out: NCI-H716 cell proliferation inhibition rate IC50. As for the experimental part: To evaluate inhibitory effects of the compounds on the proliferation of NCI-H716, SNU-16 and BaF3-FGFR2-BICC1 V564F cells by cell proliferation inhibition experiments.
CellTiter-Glo method was used to detect inhibitory effects of the compounds on the proliferation of NCI-H716, SNU-16 and BaF3 FGFR2-BICC1 V564F cells. The highest detection concentration of the compounds was 1000 nM, which was diluted in 3 folds, with a total of 9 concentrations (1000 nM to 0.15 nM). After the cells were plated at an appropriate density, compounds were added the next day and incubated for 72 h before detection using the […] detection kit.
1) Inhibition rate (%): Inhibition rate %=[(mean value in positive control well−value in sample well)/(mean value in positive control well−mean value in negative control well)]×100, wherein the positive control well was a reaction well without a compound […], and the negative control well was a reaction wells without an enzyme.
(§2) 2) Curve fitting: Log(inhibitor) vs. response—Variable slope (four parameters) in GraphPad Prism 6 was used for fitting equation analysis of the compound concentration and the corresponding inhibition rate, and the curve was fitted to obtain the IC50 values of the compounds.

A further data set concerns the target FGFR3 (Homo sapiens (Human), UniProt P22607). Kind of data set: TR-FRET kinase inhibition assay, FGFR3. The format is biochemical. The following applies: ATP Km concentration (30 μM). How it is done:
To measure the IC50 values of the compounds against FGFR1, FGFR2, FGFR3, FGFR4, and FGFR2 V564F at ATP Km concentrations by TR-FRET method.
TR-FRET (time-resolved fluorescence resonance energy transfer) method was used to detect the inhibitory activity of the compounds on FGFR1, FGFR2, FGFR3, FGFR4, and FGFR2 V564F kinase region fragments. The highest detection concentration of the compounds in 5 kinase experiments was 1000 nM, which was diluted in 3 folds, with a total of 11 concentrations (1000 nM to 0.017 nM). A kinase buffer (50 mM HEPES pH 7.5, 1 mM EGTA, 10 mM MgCl2, 2 mM DTT, and 0.01% Tween-20) was used to prepare 4× enzyme solution, 4× compound solutions diluted in gradient, and a 2×ATP/Peptide substrate solution. To a 384-well plate, 2.5 μL of enzyme solution and 2.5 μL of diluted […] compound solution were added, and 5 μL of 2×ATP/Peptide substrate solution was then added. After reacting at room temperature for 60 minutes for FGFR1, FGFR2, FGFR3, and FGFR2 V564F kinases, and 120 minutes for FGFR4 kinase, 10 μL of a 2× termination and detection mixed liquid prepared with 1×LANCE detection buffer with an EDTA concentration of 20 mM and a Europium-anti-phosphotyrosine (PT66) concentration of 2 nM was added to each well of the plate. After reacting at room temperature for 60 minutes for FGFR1, FGFR2, FGFR3, and FGFR4, and 30 minutes for FGFR2 V564F, the fluorescence signal value in each well of the plate was measured by a microplate reader.
1) Inhibition rate (%): Calculation was performed on the raw data (665 nm/620 nm reading ratio) according to the following formula to obtain the inhibition rate. Inhibition rate %=[(mean value in positive control well−value in sample well)/(mean value in positive control well−mean value in negative control well)]×100, wherein the positive control well was a reaction well without a compound […], and the negative control well was a reaction wells without an enzyme.
as §2

pIC50: −log10 of the molar value.

Chain of FGFR2 V564F (P21802 481-770 V564F): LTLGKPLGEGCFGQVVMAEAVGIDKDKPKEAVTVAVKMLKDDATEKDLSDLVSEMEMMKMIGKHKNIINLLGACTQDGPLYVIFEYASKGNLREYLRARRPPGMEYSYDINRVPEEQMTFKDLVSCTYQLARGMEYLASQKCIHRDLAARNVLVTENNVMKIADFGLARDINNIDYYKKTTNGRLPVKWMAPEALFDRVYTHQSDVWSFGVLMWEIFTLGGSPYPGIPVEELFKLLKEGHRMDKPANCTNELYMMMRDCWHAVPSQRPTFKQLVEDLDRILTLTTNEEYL
Chain of FGFR2 (P21802 481-770): as the sequence (P21802 481-770 V564F) above, with F84V counted along it
Chain of FGFR3 (P22607 472-761): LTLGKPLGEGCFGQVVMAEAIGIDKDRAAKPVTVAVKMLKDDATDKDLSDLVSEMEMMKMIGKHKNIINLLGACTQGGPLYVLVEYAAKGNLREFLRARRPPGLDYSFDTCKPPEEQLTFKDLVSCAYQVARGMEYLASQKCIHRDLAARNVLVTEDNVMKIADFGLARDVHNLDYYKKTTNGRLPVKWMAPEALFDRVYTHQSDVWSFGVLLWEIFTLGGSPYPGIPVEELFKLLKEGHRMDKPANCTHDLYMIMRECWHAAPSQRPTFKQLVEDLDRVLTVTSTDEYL

On FGFR1, `C=CC(=O)N1CC[C@H](n2nc(C#Cc3ccc4c(c3)ncn4C3CC3)c3c(N)ncc(C(=O)C4CC4)c32)C1` [Example 38, (S)-1-(3-(4-amino-7-(cyclopropanecarbonyl)-3-((1-cyclopropyl-1H-benzo[d]imidazol-5-yl)ethynyl)-1H-pyrazolo[4,3-c]pyridin-1-yl)pyrrolidin-1-yl)prop-2-en-1-one] had a pIC50 of 8.55. At FGFR2, the pIC50 is 8.80. In data set [1], the AUC(0-t) worked out at 2230 ng·h/mL, the AUC(0-inf) came out at 2270 ng·h/mL, the half-life was 1.1 h and the MRT was 2.99 h. Also, in data set [1], the Cmax was determined as 604 ng/mL and the Time to peak tmax is 2 h. In data set [2], the pIC50 is 8.72. The compound further gave a pIC50 at FGFR2 V564F of 9.00. Further, in the data set on NCI-H716 cells, the pIC50 was 9.04.
As to `C=CC(=O)N1CC[C@H](n2nc(C#Cc3ccc4ccnn4c3)c3c(N)ncc(C(C)=O)c32)C1` [Example 71, (S)-1-(3-(7-acetyl-4-amino-3-(pyrazolo[1,5-a]pyridine-6-ethynylene)-1H-pyrazolo[4,3-c]pyridin-1-yl)pyrrolidine-1-methyl)prop-2-en-1-one], the pIC50 is 8.14 against FGFR1; 8.70 at FGFR2; 8.66 in data set [2]; 8.55 against FGFR2 V564F; 8.82 in the data set with NCI-H716 cells; 8.57 against FGFR3.
Turning to `C=CC(=O)N1CC[C@H](n2nc(C#Cc3ccc4oc(C5CC5)nc4c3)c3c(N)ncc(C(C)=O)c32)C1` [Example 70, (S)-1-(3-(7-acetyl-4-amino-3-((2-cyclopropylbenzo[d]oxazol-5-yl)alkynyl)-1H-pyrazolo[4,3-c]pyridin-1-yl)pyrrolidine-1-methyl)prop-2-en-1-one], on FGFR1, the pIC50 is 8.62. Besides, at FGFR2, the pIC50 is 9.22. For the same compound, in data set [1], the AUC(0-t) was found to be 1510 ng·h/mL, the AUC(0-inf) was 1860 ng·h/mL, the half-life was 2.5 h and the MRT was determined as 5.5 h. In addition, in data set [1], the Cmax stood at 287 ng/mL and the Time to peak tmax came out at 4 h. Besides, the pIC50 in data set [2] is 8.59. Moreover, the pIC50 against FGFR2 V564F was 8.89. For the same compound, in the data set on NCI-H716 cells, the pIC50 is 8.80.
The compound `C=CC(=O)N1CC[C@H](n2nc(C#Cc3ccc4cn(C5CC5)nc4c3)c3c(N)ncc(C(C)=O)c32)C1` [Example 87, (S)-1-(3-(7-acetyl-4-amino-3-((2-cyclopropyl-2H-indazol-6-yl)ethynyl)-1H-pyrazolo[4,3-c]pyridin-1-yl)pyrrolidine-1-methyl)prop-2-en-1-one] showed a pIC50 against FGFR1 of 8.80. The pIC50 on FGFR2 is 9.30. In data set [1], the AUC(0-t) came out at 2240 ng·h/mL, the AUC(0-inf) turned out to be 2240 ng·h/mL, the half-life is 0.5 h and the MRT came out at 2.38 h. In data set [1], the Cmax worked out at 534 ng/mL and the Time to peak tmax turned out to be 2 h. Besides, the pIC50 in data set [2] is 9.52. At FGFR2 V564F, this compound showed a pIC50 of 9.22. The pIC50 with NCI-H716 cells was 8.88.
Compound `C=CC(=O)N1CC[C@H](n2nc(C#Cc3ccc4c(c3)ncn4C)c3c(N)ncc(C(=O)CC)c32)C1` [Example 64, (S)-1-(3-(4-amino-3-((1-methyl-1H-benzo[d]imidazol-5-yl)ethynyl)-7-propionyl-1H-pyrazolo[4,3-c]pyridin-1-yl)pyrrolidin-1-yl)prop-2-en-1-one] had a pIC50 against FGFR1 of 8.20. Further, the pIC50 on FGFR2 is 8.85. For the same compound, in data set [1], the AUC(0-t) was 3400 ng·h/mL, the AUC(0-inf) is 3430 ng·h/mL, the half-life was 0.9 h and the MRT is 2.58 h. For the same compound, in data set [1], the Cmax is 866 ng/mL and the Time to peak tmax is 2 h. For the same compound, the pIC50 in data set [2] is 8.72. The pIC50 at FGFR2 V564F was 9.22. In the data set on NCI-H716 cells, the pIC50 was 8.74.
`C=CC(=O)N1CC[C@H](n2nc(C#Cc3ccc4cn(CC)nc4c3)c3c(N)ncc(C(C)=O)c32)C1` [Example 85, (S)-1-(3-(7-acetyl-4-amino-3-((2-ethyl-2H-indazol-6-yl)alkynyl)-1H-pyrazolo[4,3-c]pyridin-1-yl)pyrrolidine-1-methyl)prop-2-en-1-one]: the pIC50 at FGFR1 is 8.68. For the same compound, the pIC50 against FGFR2 was 9.40. In data set [1], the AUC(0-t) turned out to be 1490 ng·h/mL, the AUC(0-inf) worked out at 1490 ng·h/mL, the half-life is 0.5 h and the MRT was 2.39 h. In addition, in data set [1], the Cmax was 394 ng/mL and the Time to peak tmax came out at 0.5 h. Also, in data set [2], the pIC50 was 9.40. This compound gave a pIC50 against FGFR2 V564F of 9.30. In addition, the pIC50 with NCI-H716 cells is 9.02.
`C=CC(=O)N1CC[C@H](n2nc(C#Cc3ccc4c(c3)ncn4C3CC3)c3c(N)ncc(C(C)=O)c32)C1` [Example 37, (S)-1-(3-(7-acetyl-4-amino-3-((1-cyclopropyl-1H-benzo[d]imidazol-5-yl)ethynyl)-1H-pyrazolo[4,3-c]pyridin-1-yl)pyrrolidin-1-yl)prop-2-en-1-one]: the pIC50 was 8.62 on FGFR1; 9.00 against FGFR2; 8.70 in data set [2]; 9.30 against FGFR2 V564F; 9.02 in the data set on NCI-H716 cells; 8.96 against FGFR3.

The values are drawn from US20250152564A1, “PROPYLENE KETONE-CONTAINING BIOINHIBITOR, PREPARATION METHOD THEREFOR, AND USE THEREOF” (SHANGHAI HANSOH BIOMEDICAL CO., LTD., priority 2022, published 2025).
